Data taken from US8551921B2, “Method for determining the toxicity of an environmental or chemical sample” (priority 2000, dated 2013).
Where “and” joins values, the source holds several entries; their conditions need not be identical. Equal values may be shown once. Where a name gives a salt, the structure may show the parent alone. Read-outs that look alike come from different tables or passages of the source.

What was measured:
E. coli MZ 480 = experiment: MARA indicator device toxic fingerprint, microorganism no. 8; conditions: Microbial Toxic Concentration, incubation time 16 h
Description: (§1) • dispense 150 μl of growth medium with indicator in each well • add a concentration gradient of the chemical to be tested to rows B-H in a MARA plate (i.e. an indicator device according to the present invention) • incubate for 16 h • read absorbance values; and • analyse with software.
(§2) Microbial responses to different chemicals was estimated by kinetic measurements of their growth using the Labsystem automated IEMS reader. A computer software that could monitor incubation temperatures, reading intervals, and automatically transfer OD data to a computer was developed. A growth medium containing 0.05% peptone, 0.011% bromothymol blue (BTB), 1% sodium chloride and 0.3% glucose was added to all wells. The glucose acts as a carbon source, and during growth the microorganism will break down the glucose and produce acids, that will turn the initially blue indicator to yellow. Each microplate contains 12 columns and 8 rows, and thus in each plate, 11 lyophilized microbial strains were used (one for each column, the 12th column was used as negative control). […] In order to avoid drying out of the plates during the incubation, one drop of sterile mineral oil was added to each well. The plate was then incubated in the IEMS spectrophotometer and the absorbance value from each well was measured every second hour during 48 h.
(§3) The overall toxicity of the chemical compound can be described either as the mean of all 11 MTC values (shown in column 12), or as the minimum value for all 11 microbial strains used in the assay (marked with bold in the table).

[1] = tested on: Staphylococcus epidermidis (Karin12); experiment: MARA indicator device toxic fingerprint, microorganism no. 11; conditions: Microbial Toxic Concentration, incubation time 16 h
Description: as §1, §2, §3

[2] = tested on: JG1 (strain of marine origin); conditions: Microbial Toxic Concentration, incubation time 16 h
Description: as §1, §2, §3

ObanF = conditions: Microbial Toxic Concentration; incubation time 16 h
Description: as §1, §2, §3

[3] = tested on: JG4 (strain of marine origin); conditions: Microbial Toxic Concentration; incubation time 16 h
Description: as §1, §2, §3

[4] = tested on: JG2 (strain of marine origin); conditions: Microbial Toxic Concentration, incubation time 16 h
Description: as §1, §2, §3

[5] = tested on: Saccaromyces ceriviciae (bakers yeast); conditions: Microbial Toxic Concentration, incubation time 16 h
Description: as §1, §2, §3

[6] = tested on: Aeromonas hydriphila HG3 (RV 5.1); conditions: Microbial Toxic Concentration, incubation time 16 h
Description: as §1, §2, §3

[7] = tested on: JG3 (strain of marine origin); experiment: MARA indicator device toxic fingerprint, microorganism no. 3; conditions: Microbial Toxic Concentration; incubation time 16 h
Description: as §1, §2, §3

[8] = tested on: β-proteobacterium A22 (Kalmar 200); experiment: MARA indicator device toxic fingerprint, microorganism no. 5; conditions: Microbial Toxic Concentration, incubation time 16 h
Description: as §1, §2, §3

[9] = tested on: 11 different microbial strains; conditions: for Toxic fingerprint: MTC value, Mean: mean of all 11 MTC values
Description: as §1, §2, §3
Concentrations are given in mg/ml.

Daphnia = conditions: IC50-values, established assay; cited from earlier work
E. coli = conditions: IC50-values, established assay; cited from earlier work
microorganism no. 7 = experiment: MARA indicator device toxic fingerprint, microorganism no. 7; conditions: Microbial Toxic Concentration, incubation time 16 h
Description: as §1, §2, §3

[10] = tested on: Photobacterium phosphoreum; conditions: IC50-values, established assay; cited from earlier work
[11] = MTC value of the strain showing the highest sensitivity
[12] = mean MTC for the 11 microbial strains
[13] = 11 microbial strains (panel, species not named)

| Structure (SMILES) | Toxic fingerprint: MTC value for microorganism no. 8 (E. coli MZ 480) | Toxic fingerprint: MTC value for microorganism no. 11 [1] | Toxic fingerprint: MTC value for microorganism no. 1 [2] | Toxic fingerprint: MTC value for microorganism no. 9 (ObanF) | Toxic fingerprint: MTC value for microorganism no. 4 [3] | Toxic fingerprint: MTC value for microorganism no. 2 [4] | Toxic fingerprint: MTC value for microorganism no. 10 [5] | Toxic fingerprint: MTC value for microorganism no. 6 [6] | Toxic fingerprint: MTC value for microorganism no. 3 [7] | Toxic fingerprint: MTC value for microorganism no. 5 [8] | Toxic fingerprint: MTC value, Mean [9] | Inhibitory concentrations by method: Daphnia (Daphnia) [mg/mL] | Inhibitory concentrations by method: E. coli (E. coli) [mg/mL] | Toxic fingerprint: MTC value for microorganism no. 7 (microorganism no. 7) | Inhibitory concentrations by method: Microtox [10] [mg/mL] | Inhibitory concentrations by method: MARA MTCmin [9, 11] [mg/mL] | Inhibitory concentrations by method: MARA MTCmean [9, 12] [mg/mL] | further results |
| --- | --- | --- | --- | --- | --- | --- | --- | --- | --- | --- | --- | --- | --- | --- | --- | --- | --- | --- |
| C=CC(N)=O [Acryl amide] | 17.700 and 23.300 | 8.300 and 10.300 | 0.965 and 0.853 | 13.900 and 11.000 | 2.100 and 2.510 | 2.440 and 1.810 | 6.620 and 6.970 | 2.480 and 2.810 | 4.280 and 3.370 | 5.740 and 3.240 | 4.700 and 4.690 | – | – | – | – | – | – | Toxic fingerprint: MTC value for microorganism no. 8 (E. coli MZ 480; listed as acrylamid): 20; Toxic fingerprint: MTC value for microorganism no. 1 ([2]; listed as acrylamid): 0.9 |
| CN1[C@@H]2CC[C@H]1CC(OC(=O)C(CO)c1ccccc1)C2.CN1[C@@H]2CC[C@H]1CC(OC(=O)C(CO)c1ccccc1)C2.O=S(=O)(O)O (some centres unmarked) [Atropin Sulphate] | – | – | – | – | – | – | – | – | – | – | – | 0.347 | 56.294 | – | – | – | – | – |
| O=[N+]([O-])[O-].O=[N+]([O-])[O-].[Ba+2] [Barium nitrate] | 1.360 | 0.466 | 2.520 | 1.490 | 5.620 | 0.205 | 0.453 | 0.713 | 0.908 | 1.090 | 1.420 | 0.208 | – | 1.110 | 29.318 | 0.453 | 1.420 | mean toxicity levels (MTC values) ([9]; text to FIG. 7): 1.4 mg/L |
| Cn1c(=O)c2c(ncn2C)n(C)c1=O [Caffeine] | 3.430 | 6.060 | – | – | – | 1.010 | 0.790 | 2.190 | – | 0.973 | 2.250 | 0.158 | 15.426 | 2.930 | 2.129 | 0.788 | 2.085 | Toxic fingerprint: MTC value for microorganism no. 7 (microorganism no. 7; listed as Coffein): 1.510; Toxic fingerprint: MTC value for microorganism no. 8 (E. coli MZ 480; listed as Coffein): 3.500; Toxic fingerprint: MTC value for microorganism no. 11 ([1]; listed as Coffein): 2.310; Toxic fingerprint: MTC value for microorganism no. 2 ([4]; listed as Coffein): 1.080; Toxic fingerprint: MTC value for microorganism no. 10 ([5]; listed as Coffein): 0.785; Toxic fingerprint: MTC value for microorganism no. 6 ([6]; listed as Coffein): 1.300; Toxic fingerprint: MTC value for microorganism no. 5 ([8]; listed as Coffein): 3.550; Toxic fingerprint: MTC value, Mean ([9]; listed as Coffein): 1.920 |
| C[C@H]1O[C@@H](O[C@H]2[C@@H](O)C[C@H](O[C@H]3[C@@H](O)C[C@H](O[C@H]4CC[C@@]5(C)[C@H](CC[C@@H]6[C@@H]5C[C@@H](O)[C@]5(C)[C@@H](C7=CC(=O)OC7)CC[C@]65O)C4)O[C@@H]3C)O[C@@H]2C)C[C@H](O)[C@@H]1O [Digoxin] | 0.310 | 0.104 | 1.040 | 0.201 | 0.942 | 0.937 | 2.510 | 0.531 | 0.481 | 0.927 | 0.8 and 0.770 | 0.192 | – | 0.921 | 1.129 | 0.104 | 0.770 | – |
| OCCO [Ethylene Glycol] | – | – | – | – | – | – | – | – | – | – | – | 74.625 | 270.945 | – | 167.064 | – | – | Inhibitory concentrations by method: MARA MTCmin [9]: 11.775 mg/mL; Inhibitory concentrations by method: MARA MTCmean [9, 13]: 28.400 mg/mL |
| [Cl-].[Cl-].[Mg+2] [Magnesium Chloride] | 24.100 | 4.580 | 28.800 | 8.830 | 7.500 | 9.660 | 22.700 | 13.500 | 7.420 | 14.800 | 13.900 | – | – | 12.100 | – | – | – | – |
| Cc1ccccc1C(OCCN(C)C)c1ccccc1 (centres unmarked) [Orphenadrin HCl] | – | – | – | – | – | – | – | – | – | – | – | – | – | – | – | – | – | Toxic fingerprint: MTC value, Mean ([9]; HCl): 0.131 and 0.146 |
| Oc1ccccc1 [Phenol] | – | – | – | – | – | – | – | – | – | – | – | 0.007 | 2.258 | – | 0.133 | – | – | Inhibitory concentrations by method: MARA MTCmin [9]: 0.412 mg/mL; Inhibitory concentrations by method: MARA MTCmean [9, 13]: 0.831 mg/mL |
| [Cl-].[K+] [Potassium Chloride] | 62.300 | 31.300 | 28.200 | 65.400 | 17.000 | 29.400 | 16.000 | 27.100 | 10.600 | 20.100 | 29.800 | – | – | 67.300 | – | – | – | – |
| [N-]=[N+]=[N-] [Sodium Azide] | 0.592 | 0.146 | 0.025 | 2.000 | 0.088 | 0.045 | 0.106 | 0.082 | 0.056 | 0.054 | 0.111 | – | – | 0.126 | – | – | – | – |
| [F-].[Na+] [Sodium Fluoride] | 11.400 and 14.600 | – | 3.290 and 2.220 | 22.700 and 20.100 | 6.040 and 6.560 | 2.660 and 2.930 | 5.650 and 4.130 | – | – | 9.500 and 15.000 | 6.930 and 9.170 | 0.636 | 10.547 | 6.450 and 7.890 | 9.843 | 4.890 | 8.050 | – |
| CSc1ccc2c(c1)N(CCC1CCCCN1C)c1ccccc1S2 (centres unmarked) [Tioridazin HCl] | 0.006 | 0.006 | – | – | – | 0.017 | 0.014 | 0.027 | – | 0.029 | 0.028 | – | – | 0.042 | – | 0.006 | 0.028 | – |
